Non-standard residues stand in square brackets, D forms with d. Residues, ends and D or L forms follow the SMILES beside them. Nle = CCCC[C@H](N)C(=O)O
Legend:
[1] = molecular target: Mu-type opioid receptor (Cavia porcellus) (UniProt P97266); details: Ileum
[2] = molecular target: T1, Kappa-type opioid receptor (Homo sapiens, UniProt P41145); assay: biochemical; format: cell-based, CHO
Mu-type opioid receptor = Mu-type opioid receptor (Homo sapiens, UniProt P35372); assay: biochemical; format: cell-based, CHO
[3] = molecular target: Delta-type opioid receptor (Homo sapiens, UniProt P41143); assay: In vitro binding affinity to human Opioid receptor delta 1 on CHO cell membranes using [3H]diprenorphine displacement.
[4] = molecular target: T2, Opioid receptors; mu/kappa/delta (Homo sapiens) (UniProt P41145+P41143+P35372); assay: Binding affinity towards human kappa,mu,delta receptors was calculated as the ratio; 1/3.4/2.3; format: protein assay
[5] = molecular target: T1, Kappa-type opioid receptor; format: functional
[6] = molecular target: T2, Opioid receptors; mu/kappa/delta (Homo sapiens); assay: Binding affinity towards human kappa,mu,delta receptors was calculated as the ratio; 1/34/69; format: protein assay
[7] = molecular target: T2, Opioid receptors; mu/kappa/delta (Homo sapiens); assay: Binding affinity towards human kappa,mu,delta receptors was calculated as the ratio; 1/620/1300; format: protein assay
[8] = molecular target: T1, Kappa-type opioid receptor; details: 10 uM
[9] = molecular target: T1, Kappa-type opioid receptor; assay: Antagonistic activity in theOpioid receptor kappa 1 -mediated [35S]GTP-gamma-S, binding assay against 50 nM U-50,488; format: functional
[10] = molecular target: T2, Opioid receptors; mu/kappa/delta (Homo sapiens); assay: Binding affinity towards human kappa,mu,delta receptors was calculated as the ratio; 1/560/1200; format: protein assay
[11] = molecular target: T1, Kappa-type opioid receptor; assay: Antagonistic activity in the Opioid receptor kappa 1 -mediated [35S]GTP-gamma-S, binding assay against 50 nM U-50,488; format: functional
[12] = molecular target: T2, Opioid receptors; mu/kappa/delta (Homo sapiens); assay: Binding affinity towards human kappa,mu,delta receptors was calculated as the ratio; 1/360/360; format: protein assay

T1 sequence (P41145 whole entry): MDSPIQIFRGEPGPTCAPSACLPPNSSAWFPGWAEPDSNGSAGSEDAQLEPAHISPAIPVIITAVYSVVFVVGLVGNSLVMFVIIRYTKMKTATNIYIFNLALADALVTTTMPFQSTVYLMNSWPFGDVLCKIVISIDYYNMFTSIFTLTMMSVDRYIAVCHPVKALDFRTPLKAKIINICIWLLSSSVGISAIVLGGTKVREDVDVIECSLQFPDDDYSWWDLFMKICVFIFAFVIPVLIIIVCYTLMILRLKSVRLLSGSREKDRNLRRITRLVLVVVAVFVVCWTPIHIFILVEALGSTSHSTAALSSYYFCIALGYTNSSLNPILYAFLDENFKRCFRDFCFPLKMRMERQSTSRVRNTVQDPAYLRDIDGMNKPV
Sequence of Delta-type opioid receptor (P41143 whole entry): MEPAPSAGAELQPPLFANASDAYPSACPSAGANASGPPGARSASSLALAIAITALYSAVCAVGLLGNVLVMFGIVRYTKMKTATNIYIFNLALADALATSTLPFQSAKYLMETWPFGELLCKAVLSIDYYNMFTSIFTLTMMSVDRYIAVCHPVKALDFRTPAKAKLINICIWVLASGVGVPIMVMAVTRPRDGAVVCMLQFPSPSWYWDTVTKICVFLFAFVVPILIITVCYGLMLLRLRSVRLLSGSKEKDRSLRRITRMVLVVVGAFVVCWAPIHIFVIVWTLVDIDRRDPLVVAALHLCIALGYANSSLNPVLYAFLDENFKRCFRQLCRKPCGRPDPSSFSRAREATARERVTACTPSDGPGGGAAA
T2 sequence (P35372 whole entry, looked up): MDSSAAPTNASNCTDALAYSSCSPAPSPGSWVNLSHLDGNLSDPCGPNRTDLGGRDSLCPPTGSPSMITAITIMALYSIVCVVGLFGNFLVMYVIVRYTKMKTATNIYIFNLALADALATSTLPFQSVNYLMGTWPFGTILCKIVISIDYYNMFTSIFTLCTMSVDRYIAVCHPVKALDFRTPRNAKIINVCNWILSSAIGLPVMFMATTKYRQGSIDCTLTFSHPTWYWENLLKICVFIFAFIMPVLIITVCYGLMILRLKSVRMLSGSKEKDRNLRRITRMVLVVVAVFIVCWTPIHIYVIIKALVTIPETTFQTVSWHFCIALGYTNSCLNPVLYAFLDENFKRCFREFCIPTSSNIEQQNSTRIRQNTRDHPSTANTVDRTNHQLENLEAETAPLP
T2 sequence (P41143 whole entry, looked up): as the sequence (P41143 whole entry) above
T2 sequence (P41145 whole entry, looked up): as the sequence (P41145 whole entry) above
Sequence of Mu-type opioid receptor (P35372 whole entry): as the sequence (P35372 whole entry, looked up) above
Sequence of Mu-type opioid receptor (Cavia porcellus) (P97266 whole entry): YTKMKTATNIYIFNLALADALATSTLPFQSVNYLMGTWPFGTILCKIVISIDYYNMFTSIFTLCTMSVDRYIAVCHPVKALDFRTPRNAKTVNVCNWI

## Oc1ccc2c3c1O[C@H]1c4[nH]c5c(c4C[C@@]4(O)[C@@H](C2)N(CC2CC2)CC[C@]314)C[C@@]1(O)[C@H]2Cc3ccc(O)c4c3[C@@]1(CCN2CC1CC1)[C@H]5O4
[1]
  Ke: 0.572 nM

## H-YGGFLR-OH
[2]
  Ki: 404 nM
Mu-type opioid receptor
  Ki: 40.6 nM
[3]
  Ki: 9.1 nM

## CC[C@H](C)[C@H](NC(=O)[C@H](CCCNC(=N)N)NC(=O)[C@H](CCCNC(=N)N)NC(=O)[C@H](CC(C)C)NC(=O)[C@H](Cc1ccccc1)NC(=O)CNC(=O)CNC(=O)[C@@H](N)Cc1ccc(O)cc1)C(=O)N[C@@H](CCCNC(=N)N)C(=O)N1CCC[C@H]1C(=O)N[C@@H](CCCCN)C(=O)N[C@@H](CC(C)C)C(=O)N[C@@H](CCCCN)C(=O)O
[2]
  Ki: 0.23 nM

## CC(C)C[C@H](NC(=O)[C@H](Cc1ccccc1)NC(=O)CNC(=O)CNC(=O)[C@@H](N)Cc1ccc(O)cc1)C(=O)N[C@@H](CCCNC(=N)N)C(=O)N[C@@H](CCCNC(=N)N)C(=O)O
Mu-type opioid receptor
  Ki: 38 nM
[3]
  Ki: 9.7 nM

## CC[C@H](C)[C@H](NC(=O)[C@H](CCCN=C(N)N)NC(=O)[C@H](CCCN=C(N)N)NC(=O)[C@H](CC(C)C)NC(=O)[C@H](Cc1ccccc1)NC(=O)[C@@H]1CCCN1C(=O)CNC(=O)[C@@H](N)Cc1ccc(O)cc1)C(=O)N[C@@H](CCCN=C(N)N)C(=O)N1CCC[C@H]1C(N)=O
[2]; cho
  Ki: 10 nM
Mu-type opioid receptor; cho
  Ki: 6200 nM
[3]; cho
  Ki: 13500 nM

## H-YGPFLR-NH2 [listing 1 of 2 here]
[4]
  Ki ratio: kappa/delta/mu

## H-YGPFLRR-NH2
[2]
  Ki: 60.3 nM
Mu-type opioid receptor
  Ki: 12600 nM
[3]
  Ki: 15100 nM

## CC[C@H](C)[C@H](NC(=O)[C@H](CCCN=C(N)N)NC(=O)[C@H](CCCN=C(N)N)NC(=O)[C@H](CC(C)C)NC(=O)[C@H](Cc1ccccc1)NC(=O)[C@@H]1CCCN1C(=O)CNC(=O)[C@@H](N)Cc1ccc(O)cc1)C(=O)N[C@@H](CCCN=C(N)N)C(=O)N1CCC[C@@H]1C(=O)N[C@@H](CCCCN)C(N)=O
[1]
  Ke: 494 nM

## CC[C@H](C)[C@H](NC(=O)[C@H](CCCNC(=N)N)NC(=O)[C@H](CCCNC(=N)N)NC(=O)[C@H](CC(C)C)NC(=O)[C@H](Cc1ccccc1)NC(=O)[C@@H]1CCCN1C(=O)CNC(=O)[C@@H](N)Cc1ccc(O)cc1)C(=O)N[C@@H](CCCNC(=N)N)C(=O)N1CCC[C@H]1C(=O)N[C@@H](CCCCN)C(=O)O
[2]; cho
  Ki: 41.7 nM
Mu-type opioid receptor; cho
  Ki: 15100 nM
[3]; cho
  Ki: 15000 nM

## H-YGGFLRRIR-OH
[2]
  Ki: 2.5 nM
Mu-type opioid receptor
  Ki: 23.8 nM
[3]
  Ki: 9.8 nM

## CC[C@H](C)[C@H](NC(=O)[C@H](CCCNC(=N)N)NC(=O)[C@H](CCCNC(=N)N)NC(=O)[C@H](CC(C)C)NC(=O)[C@H](Cc1ccccc1)NC(=O)[C@@H]1CCCN1C(=O)CNC(=O)[C@@H](N)Cc1ccc(O)cc1)C(=O)N[C@@H](CCCNC(=N)N)C(=O)N[C@@H](CCCNC(=N)N)C(=O)N[C@@H](CCCCN)C(N)=O
[2]; cho
  Ki: 1.2 nM
Mu-type opioid receptor; cho
  Ki: 1660 nM
[3]; cho
  Ki: 3230 nM
[5]
  IC50: 410 nM

## CCCC[C@H](NC(=O)[C@H](CC(C)C)NC(=O)[C@H](Cc1ccccc1)NC(=O)[C@@H]1CCCN1C(=O)CNC(=O)[C@@H](N)Cc1ccc(O)cc1)C(=O)N[C@@H](CCCN=C(N)N)C(N)=O (H-YGPFL[Nle]R-NH2)
[2]
  Ki: > 100000 nM
Mu-type opioid receptor
  Ki: > 100000 nM
[3]
  Ki: 14100 nM

## CC[C@H](C)[C@H](NC(=O)[C@H](CCCN=C(N)N)NC(=O)[C@H](CCCN=C(N)N)NC(=O)[C@H](CC(C)C)NC(=O)[C@H](Cc1ccccc1)NC(=O)CNC(=O)CNC(=O)[C@@H](N)Cc1ccc(O)cc1)C(=O)N[C@@H](CCCN=C(N)N)C(=O)N1CCC[C@@H]1C(=O)O
[6]
  Ki ratio: kappa/mu/delta

## H-YGPFLR-NH2 [listing 2 of 2 here]
[2]
  Ki: 5600 nM
Mu-type opioid receptor
  Ki: 19500 nM
[3]
  Ki: 12600 nM

## CC(C)C[C@H](NC(=O)[C@H](Cc1ccccc1)NC(=O)[C@@H]1CCCN1C(=O)CNC(=O)[C@@H](N)Cc1ccc(O)cc1)C(=O)N[C@@H](CCCN=C(N)N)C(=O)N[C@@H](CCCN=C(N)N)C(=O)N[C@@H](CCCN=C(N)N)C(=O)N[C@@H](CCCN=C(N)N)C(=O)N1CCC[C@@H]1C(=O)N[C@@H](CCCCN)C(N)=O
[1]
  Ke: 280 nM

## CC[C@H](C)[C@H](NC(=O)[C@H](CCCN=C(N)N)NC(=O)[C@H](CCCN=C(N)N)NC(=O)[C@H](CC(C)C)NC(=O)[C@H](Cc1ccccc1)NC(=O)[C@@H]1CCCN1C(=O)CNC(=O)[C@@H](N)Cc1ccc(O)cc1)C(=O)N[C@@H](CCCN=C(N)N)C(=O)N1CCC[C@@H]1C(N)=O
[7]
  Ki ratio: kappa/mu/delta

## CC[C@H](C)[C@H](NC(=O)[C@H](CCCN=C(N)N)NC(=O)[C@H](CCCN=C(N)N)NC(=O)[C@H](CC(C)C)NC(=O)[C@H](Cc1ccccc1)NC(=O)CNC(=O)CNC(=O)[C@@H](N)Cc1ccc(O)cc1)C(=O)N[C@@H](CCCN=C(N)N)C(=O)N1CCC[C@H]1C(=O)N[C@@H](CCCCN)C(N)=O
[2]
  Ki: 0.059 nM
[8]
  Max stimulation: 73%

## H-YGPFL-NH2
[2]
  Ki: > 10000 nM
Mu-type opioid receptor
  Ki: 15500 nM
[3]
  Ki: 18600 nM

## CC[C@H](C)[C@H](NC(=O)[C@H](CCCNC(=N)N)NC(=O)[C@H](CCCNC(=N)N)NC(=O)[C@H](CC(C)C)NC(=O)[C@H](Cc1ccccc1)NC(=O)[C@@H]1CCCN1C(=O)CNC(=O)[C@@H](N)Cc1ccc(O)cc1)C(=O)N[C@@H](CCCNC(=N)N)C(=O)N1CCC[C@H]1C(=O)N[C@@H](CCCCN)C(N)=O
[2]
  Ki: 2.4 nM
[9]
  IC50: 440 nM
Mu-type opioid receptor
  Ki: 5250 nM

## CC[C@H](C)[C@H](NC(=O)[C@H](CCCN=C(N)N)NC(=O)[C@H](CCCN=C(N)N)NC(=O)[C@H](CC(C)C)NC(=O)[C@H](Cc1ccccc1)NC(=O)CNC(=O)CNC(=O)[C@@H](N)Cc1ccc(O)cc1)C(=O)O
Mu-type opioid receptor
  Ki: 35.4 nM

## H-YGPFLRRIR-NH2
[2]
  Ki: 10.7 nM
[10]
  Ki ratio: kappa/delta/mu
Mu-type opioid receptor
  Ki: 6030 nM
[3]
  Ki: 13200 nM

## CC(C)C[C@H](NC(=O)[C@H](Cc1ccccc1)NC(=O)[C@@H]1CCCN1C(=O)CNC(=O)[C@@H](N)Cc1ccc(O)cc1)C(=O)N[C@@H](CCCN=C(N)N)C(=O)N[C@@H](CCCN=C(N)N)C(=O)N[C@@H](CCCN=C(N)N)C(N)=O
[2]
  Ki: 6.61 nM
Mu-type opioid receptor
  Ki: 3100 nM
[3]
  Ki: > 100000 nM
[11]
  IC50: 4000 nM

## CC(C)C[C@H](NC(=O)[C@H](Cc1ccccc1)NC(=O)[C@@H]1CCCN1C(=O)CNC(=O)[C@@H](N)Cc1ccc(O)cc1)C(=O)N[C@@H](CCCNC(=N)N)C(=O)N[C@@H](CCCNC(=N)N)C(=O)N[C@@H](CCCNC(=N)N)C(=O)N[C@@H](CCCNC(=N)N)C(=O)N1CCC[C@H]1C(=O)N[C@@H](CCCCN)C(N)=O
[2]; cho
  Ki: 0.44 nM
Mu-type opioid receptor; cho
  Ki: 2750 nM
[3]; cho
  Ki: 6760 nM
[5]
  IC50: 340 nM

## CC[C@H](C)[C@H](NC(=O)[C@H](CCCNC(=N)N)NC(=O)[C@H](CCCNC(=N)N)NC(=O)[C@H](CC(C)C)NC(=O)[C@H](Cc1ccccc1)NC(=O)[C@@H]1CCCN1C(=O)CNC(=O)[C@@H](N)Cc1ccc(O)cc1)C(=O)N[C@@H](CCCNC(=N)N)C(=O)N[C@@H](CCCNC(=N)N)C(N)=O
[2]; cho
  Ki: 3.39 nM
Mu-type opioid receptor; cho
  Ki: 2340 nM
[3]; cho
  Ki: 6030 nM
[5]
  IC50: 1260 nM

## CC[C@H](C)[C@H](NC(=O)[C@H](CCCNC(=N)N)NC(=O)[C@H](CCCNC(=N)N)NC(=O)[C@H](CC(C)C)NC(=O)[C@H](Cc1ccccc1)NC(=O)CNC(=O)CNC(=O)[C@@H](N)Cc1ccc(O)cc1)C(=O)N[C@@H](CCCNC(=N)N)C(=O)N1CCC[C@H]1C(=O)O
[2]
  Ki: 0.35 nM
Mu-type opioid receptor
  Ki: 11.9 nM
[3]
  Ki: 24 nM

## CC[C@H](C)[C@H](NC(=O)[C@H](CCCN=C(N)N)NC(=O)[C@H](CCCN=C(N)N)NC(=O)[C@H](CC(C)C)NC(=O)[C@H](Cc1ccccc1)NC(=O)[C@@H]1CCCN1C(=O)CNC(=O)[C@@H](N)Cc1ccc(O)cc1)C(=O)N[C@@H](CCCN=C(N)N)C(=O)N1CCC[C@@H]1C(=O)N[C@@H](CCCCN)C(=O)O
[12]
  Ki ratio: kappa/mu/delta

## H-YGPFLRRI-NH2
[2]
  Ki: 79.4 nM
Mu-type opioid receptor
  Ki: 16200 nM
[3]
  Ki: 16200 nM
